The target of assay [1] is T1, Riboflavin-binding protein (Gallus gallus, UniProt P02752).
T1 sequence (P02752 whole entry): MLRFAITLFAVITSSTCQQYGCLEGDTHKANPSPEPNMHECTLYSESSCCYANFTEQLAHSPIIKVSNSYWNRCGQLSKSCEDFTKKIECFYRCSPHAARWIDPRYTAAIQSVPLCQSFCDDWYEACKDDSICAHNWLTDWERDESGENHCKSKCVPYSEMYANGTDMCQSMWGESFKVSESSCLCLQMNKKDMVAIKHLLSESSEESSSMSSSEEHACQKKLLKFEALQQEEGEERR
Put plainly: Binding affinity to chicken riboflavin binding protein assessed as dissociation constant at pH 7.4 in phosphate buffer by isothermal titration calorimetric assay. Background: In ITC the heat of successive injections is recorded.

The target in assay [2] is T2, Riboflavin-binding protein (Gallus gallus) (UniProt P02752).
T2 sequence (whole entry): T1 sequence (P02752 whole entry)
Kind of assay: Competitive inhibition of chicken riboflavin binding protein binding to immobilized ligand by surface plasmon resonance assay. For orientation: Surface plasmon resonance follows binding to a sensor surface in real time, without labels.

The target of assay [3] is T1, Riboflavin-binding protein. Put plainly: Binding affinity to chicken riboflavin binding protein by surface plasmon resonance assay.
Assay [4] addresses T2, Riboflavin-binding protein (Gallus gallus). Put plainly: Competitive inhibition of chicken riboflavin binding protein binding to immobilized ligand at 500 uM by surface plasmon resonance assay.
Assay [5] deals with T1, Riboflavin-binding protein. Kind of assay: Binding affinity to chicken riboflavin binding protein assessed as dissociation constant at pH 4 in 0.1 M NaAc by isothermal titration calorimetric assay.
The target of assay [6] is T1, Riboflavin-binding protein. Kind of assay: Binding affinity to chicken riboflavin binding protein assessed as dissociation constant at pH 9 in 0.1 M Tris by isothermal titration calorimetric assay.
The target in assay [7] is T1, Riboflavin-binding protein. Kind of assay: Competitive inhibition of chicken riboflavin binding protein by surface plasmon resonance assay.
In assay [8] the target is T1, Riboflavin-binding protein. Put plainly: Binding affinity to chicken riboflavin binding protein assessed as dissociation constant at pH 7.4 in 0.1 M phosphate buffer by isothermal titration calorimetric assay.

For orientation: Kd means the constant that tells how readily two partners part at equilibrium. For the compound `Cc1cc2nc3c(=O)[nH]c(=O)nc-3n(C)c2cc1C` [LUMIFLAVIN], the Kd in assay [1] came out at 61 nM.
The inhibition is the share of the control response that was lost under treatment. With `Cc1cc2nc3c(=O)n(CC(=O)NCCCN)c(=O)nc-3n(C[C@H](O)[C@H](O)[C@H](O)CO)c2cc1C`, the figures for the inhibition entry in assay [2] and in assay [4] were “Dose-dependent effect” and 90%, respectively. In assay [3], this compound returned a Kd of 35.5 µM.
What is called Ki is the equilibrium dissociation constant of an inhibitor or competing ligand from its target. `Cc1cc2nc3c(=O)[nH]c(=O)nc-3n(C[C@H](O)[C@H](O)[C@H](O)CO)c2cc1C` [RIBOFLAVIN]: the Kd is 46 nM in assay [5], 34 nM in assay [6], 5 nM in assay [1] and 6.6 nM in assay [8]. Further, in assay [7], the affinity corresponds to a Ki of 350 nM.

Values taken from ChEMBL document CHEMBL1944628, “Bioanalytical Screening of Riboflavin Antagonists for Targeted Drug Delivery - A Thermodynamic and Kinetic Study” (ACS Med Chem Lett, 2011).
